Consider 1 molecule from patent US5929063A, “Mercapto and seleno derivatives as inhibitors of nitric oxide synthase” (priority 1995, dated 1999).

Experiment [1] has as its target T1, iNOS (Rattus norvegicus, UniProt Q06518). The experiment is described as follows: Inhibition of iNOS activity in tissue homogenates (Table 2). Format: biochemical. More on the design: bNOS in tissue homogenates; from tissue; host or cells: tissue homogenate. Conditions: iNOS (Table 2).
Experiment [2] in a line: Mean arterial blood pressure in normal anesthetized rats. It counts as in vivo, Male Wistar rats. Conditions: i.v. or i.p.
Method: An increase in blood pressure by agents that inhibit NOS is a good measure of their inhibitory effect on the constitutive, endothelial NOS (ecNOS).
In this particular example, Male Wistar rats were anesthetized with thiopentone sodium (120 mg/kg, i.p). The trachea was cannulated to facilitate respiration and the rectal temperature was maintained at 37° C. by means of a rectal probe connected to a homeothermic blanket. The right carotid artery was cannulated and connected to a pressure transducer for the measurement of phasic and mean arterial blood pressure and heart rate. The left and right femoral veins were cannulated for the administration of drugs.
Experiment [3] has as its system J774.2 macrophages. The experiment is described as follows: Nitrite production in immunostimulated J774.2 macrophages (E.coli LPS + murine gamma-interferon, 24 h). Format: cell-based, mouse. To be noted: Mus musculus. The method, then:
This example illustrates the effect of selected mercapto and seleno derivatives on nitrite production in J774.2 immunostimulated macrophages. The J774.2 mouse macrophage cell line was obtained from the ATCC and was cultured in DMEM with 4×10^-3 M L-glutamine and 10% fetal calf serum. Cells were cultured in 96-well plates with 200 μl culture medium until they reached 60-80% confluence. To induce INOS, fresh culture medium containing E.coli LPS (10 μg/ml) and murine gamma-interferon (IFN)(50 U/ml) was added. Nitrite accumulation in the cell culture medium in the absence or presence of various inhibitors was measured after 24 hours. Nitrite production, an indicator of NO synthesis, was measured in the supernatant of J774.2 macrophages by the Greiss reaction as described in Example 1 above.
This Example illustrates the effect of selected seleno derivatives on endotoxin-induced nitrite formation in J774.2 macrophages. The mouse macrophage cell line J774.2 obtained from the ATCC was cultured in DMEM with 4×10^-3 M L-glutamine and 10% fetal calf serum. Cells were cultured in 96-well plates with 200 μl culture medium until they reached 60-80% confluence. To induce iNOS, fresh culture medium containing E.coli LPS (10 μg/ml) and murine gamma-interferon (IFN)(50 U/ml) were added. Nitrite accumulation in the cell culture medium in the absence or presence of various inhibitors was measured after 24 hours. There was no detectable nitrite production by the J774.2 macrophages in the absence of immunostimulation. However, in the presence of IFN and LPS, nitrite concentration of the medium increased to 17±2 μM in the absence of inhibitor.

The target of experiment [4] is T1, iNOS. The experiment can be described thus: iNOS activity in lung homogenates from rats treated with bacterial endotoxin. It counts as biochemical. On the set-up: Lungs were obtained from rats which had been treated with bacterial endotoxin; from tissue; host or cells: lung homogenate from endotoxin-treated rats. The method, then: This Example illustrates the effect of selected mercapto and seleno derivatives on iNOS activity in lung homogenates prepared from rats treated with endotoxin. […] The homogenization buffer was composed of 50 mM tris-HCL, 0.1 mM EDTA, 0.1 mM EGTA and 1 mM phenylmethylsulfonyl chloride (pH 7.4). Cell suspensions were homogenized in the homogenization buffer on ice using a Tissue Tearor 985-370 homogenizer (BioSpec Products, Racine, Wis.).

The test system of experiment [5] is J774 macrophages. The experiment is described as follows: Nitrite production by immunostimulated J774 macrophages (endotoxin 24 h, Griess). It counts as cell-based, mouse. Conditions: Mus musculus, J774; endotoxin 10 μg/ml, 24 h (Table 1); read-out: EC50 for the inhibition of nitrite production by stimulated J774 macrophages. The method, then:
This example illustrates the effect of selected mercapto derivatives on endotoxin-induced nitrite formation in J774.2 macrophages and on IL-1 gamma-interferon induced nitrite formation in cultured rat arctic smooth muscle cells. J774 macrophage cell lines were obtained from the American Type Culture Collection (ATCC) and were grown using standard methods in Dulbecco's Modified Eagle Medium (DMEM) supplemented with 10% fetal bovine serum, glutamine, penicillin (10,000 U/l) and streptomycin (10,000 U/l). Rat aortic smooth muscle cells (RASM) from Wistar rats were isolated by enzymatic dissociation using standard methods. The cells were positively identified as smooth muscle by indirect immunofluorescent staining for a-actin, using mouse anti-α-actin antibody and anti-mouse IgG fluorescein isothiocyanate (FITC) conjugate. RASM cells were grown in T-75 tissue culture flasks in 50% F12 nutrient medium and 50% Dulbecco's Modified Eagle Medium supplemented with 10% fetal bovine serum, glutamine, penicillin (10,000 U/l) and streptomycin (10,000 U/l). Cells were grown in 96-well plates for measure of nitrite production and cell viability. J774 macrophages were treated with endotoxin (10 μg/ml) for 24 hours; smooth muscle cells were treated with IL-1 (100 U/ml) and gamma-interferon (50 U/ml) for 48 hours.
Concentration of nitrite, the degradation product of NO in the culture medium, was determined by mixing equal volumes of medium with the Griess reagent (1% sulfanilamide/0.1% naphthylethylenediamine dihydrochloride/2.5% H3 PO4). The mixture was incubated for 10 minutes at room temperature to form the chromophore, then optical densities (OD) were determined at 550 nm (OD550). NaNO2 was used as the standard. Spectrophotometric measurements were performed in a dual-wavelength spectrophotometer.

Usually EC50 stands for the concentration that produces a half-maximal response. In the case of `CNC(=N)NCCC[C@H](N)C(=O)O` [L-NMA, N^G -Methyl-L-arginine, reference compound], the EC50 came out at 17 µM in experiment [1]; 90 µM in experiment [3] (J774.2, IFN and LPS, Example 9, read-out: EC50, inhibition of nitrite production); 159 µM in experiment [5]. In addition, the “mean arterial blood pressure (MAP) response” value in experiment [2] is “pronounced and dose-dependent pressor response”. In addition, the activity at 1000 µM in experiment [3] (J774.2, 24 h, inhibitor concentration -3.000 log M (Table 3), read-out: NITRITE (% OF CONTROL)) amounted to 12.6%. The activity at 100 µM in experiment [3] (J774.2, 24 h, inhibitor concentration -4.000 log M (Table 3), read-out: NITRITE (% OF CONTROL)) worked out at 45%. Further, the activity at 10 µM in experiment [3] (J774.2, 24 h, inhibitor concentration -5.000 log M (Table 3), read-out: NITRITE (% OF CONTROL)) was 73.5%. The activity at 1 µM in experiment [3] (J774.2, 24 h, inhibitor concentration -6.000 log M (Table 3), read-out: NITRITE (% OF CONTROL)) is 95%. Further, the “iNOS ACTIVITY (%)” value in experiment [4] (inhibitor concentration -3.000 log M) is listed as 18.000%; in experiment [4] (inhibitor concentration -4.000 log M), 40.00%; in experiment [4] (inhibitor concentration -5.000 log M), 100.000%; in experiment [4] (inhibitor concentration -6.000 log M), 100.000%; in experiment [4] (inhibitor concentration -7.000 log M) it was 100.000%. Besides, in experiment [4] (lung homogenates, rats treated with endotoxin), the “inhibition of iNOS activity, in words” value is “somewhat similar in their inhibitory effect on INOS activity”.
